Laboratory results: patent US20230066946A1, “1,5-DIPHENYLPYRAZOLYL-3-OXYALKYL ACIDS AND 1-PHENYL-5-THIENYLPYRAZOLYL-3-OXYALKYL ACIDS AND THE USE THEREOF FOR CONTROL OF UNWANTED PLANT GROWTH” (Bayer Aktiengesellschaft, priority 2019, published 2023)

What was measured:
ECHCG [1] = test: Post-emergence herbicidal action against ECHCG; format: in vivo, Echinochloa crus-galli; conditions: 1280 g/ha, post-emergence at one-leaf stage, rated visually after about 3 weeks vs untreated controls
Method in brief: (§1)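 Weeds grown in sandy loam under greenhouse conditions were sprayed at the one-leaf stage, 2-3 weeks after sowing. Compounds were applied as WP or EC formulations in water with 0.5% additive at 600 L/ha, at 1280 or 320 g/ha. Activity was rated visually about 3 weeks later against untreated controls (0-100%).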

harmful plants = test: Pre-emergence herbicidal action, summary of Tables 4.1-4.15; format: in vivo; conditions: result in words
Method in brief: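 Percent herbicidal action (100% = plants dead, 0% = like controls) was assessed visually about 3 weeks after treatment. Application rates of 1280 or 320 g/ha were applied to the covering soil of freshly sown sandy-loam pots, in 600 l/ha water with 0.5% additive, before emergence.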

VERPE [2] = test: Pre-emergence herbicidal action against VERPE; format: in vivo, Veronica persica; conditions: 320 g/ha, scored visually after about 3 weeks vs untreated controls
Method in brief: (§2)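 Scoring is visual, in percent relative to untreated pots, roughly 3 weeks after soil-surface application. Rates were 1280 or 320 g/ha, delivered as WP or EC preparations with 0.5% additive in 600 L/ha water onto freshly sown, covered sandy loam.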

MATIN = test: Post-emergence herbicidal action against MATIN; format: in vivo, Matricaria inodora; conditions: visual rating about 3 weeks after treatment
Method in brief: as §1

SETVI [3] = test: Post-emergence herbicidal action against SETVI; format: in vivo, Setaria viridis; conditions: 1280 g/ha, post-emergence at one-leaf stage, rated visually after about 3 weeks vs untreated controls
Method in brief: as §1

POLCO [4] = test: Post-emergence herbicidal action against POLCO; format: in vivo, Polygonum convolvulus; conditions: 320 g/ha, visual rating about 3 weeks after treatment
Method in brief: as §1

STEME [5] = test: Post-emergence herbicidal action against STEME; format: in vivo, Stellaria media; conditions: visual rating about 3 weeks after treatment
Method in brief: as §1

SETVI [6] = test: Pre-emergence herbicidal action against SETVI; format: in vivo, Setaria viridis; conditions: 1280 g/ha, scored visually after about 3 weeks vs untreated controls
Method in brief: as §2

STEME [7] = test: Pre-emergence herbicidal action against STEME; format: in vivo, Stellaria media; conditions: scored visually after about 3 weeks vs untreated controls
Method in brief: as §2

HORMU [8] = test: Pre-emergence herbicidal action against HORMU; format: in vivo, Hordeum murinum; conditions: 320 g/ha, scored visually after about 3 weeks vs untreated controls
Description: Seeds of mono- and dicotyledonous weed plants are placed in plastic pots in sandy loam soil (doubly sown with one species each of mono- or dicotyledonous weed plants per pot) and covered with soil. The compounds of the invention, formulated in the form of wettable powders (WP) or as emulsion concentrates (EC), are then applied onto the surface of the covering soil as aqueous suspension or emulsion with addition of 0.5% additive at a water application rate equivalent to 600 litres per hectare. After the treatment, the pots are placed in a greenhouse and kept under good growth conditions for the trial plants. After about 3 weeks, the effect of the preparations is scored visually in comparison with untreated controls as percentages. For example, 100% activity=the plants have died, 0% activity=like control plants. [table] Tables 4.1-4.15 below show the effects of selected compounds of the general formula (I) according to Tables 1 to 3 on various harmful plants at an application rate corresponding to 1280 or 320 g/ha, which have been obtained by the aforementioned experimental method.

AMARE [9] = test: Pre-emergence herbicidal action against AMARE; format: in vivo, Amaranthus retroflexus; conditions: scored visually after about 3 weeks vs untreated controls; for Pre-emergence action at 320 g/ha against AMARE in %: 100% = plants have died, 0% = like control plants; for Pre-emergence action against AMARE in %: 1280 g/ha
Method in brief: as §2

AMARE [10] = test: Post-emergence herbicidal action against AMARE; format: in vivo, Amaranthus retroflexus; conditions: visual rating about 3 weeks after treatment
Method in brief: as §1

POLCO [11] = test: Pre-emergence herbicidal action against POLCO; format: in vivo, Polygonum convolvulus; conditions: 320 g/ha, scored visually after about 3 weeks vs untreated controls
Method in brief: as §2

ECHCG [12] = test: Pre-emergence herbicidal action against ECHCG; format: in vivo, Echinochloa crus-galli; conditions: scored visually after about 3 weeks vs untreated controls, 100% = plants have died, 0% = like control plants
Method in brief: as §2

VIOTR = test: Post-emergence herbicidal action against VIOTR; format: in vivo, Viola tricolor; conditions: 320 g/ha, visual rating about 3 weeks after treatment
Method in brief: as §1

HORMU [13] = test: Post-emergence herbicidal action against HORMU; format: in vivo, Hordeum murinum; conditions: 320 g/ha, visual rating about 3 weeks after treatment
Experimental: (§3) [table] Seeds of mono- and dicotyledonous weed plants are placed in plastic pots in sandy loam soil (twin sowing with one species each of mono- or dicotyledonous weed plants per pot), covered with soil and cultivated in a greenhouse under controlled growth conditions. 2 to 3 weeks after sowing, the test plants are treated at the one-leaf stage. The compounds of the invention, formulated in the form of wettable powders (WP) or as emulsion concentrates (EC), are applied to the green parts of the plants as aqueous suspension or emulsion with addition of 0.5% additive at a water application rate equivalent to 600 litres per hectare. After the test plants have been kept in the greenhouse under optimum growth conditions for about 3 weeks, the activity of the preparations is rated visually in comparison to untreated controls. For example, 100% activity=the plants have died, 0% activity=like control plants. Tables 5.1-5.16 below show the effects of selected compounds of the general formula (I) according to Tables 1 to 3 on various harmful plants at an application rate corresponding to 1280 or 320 g/ha, which have been obtained by the aforementioned experimental method.

PHBPU = test: Post-emergence herbicidal action against PHBPU; format: in vivo, Pharbitis purpurea; conditions: 320 g/ha, visual rating about 3 weeks after treatment
Method in brief: as §1

VERPE [14] = test: Post-emergence herbicidal action against VERPE; format: in vivo, Veronica persica; conditions: 320 g/ha, visual rating about 3 weeks after treatment
Method in brief: as §1

LOLRI = test: Post-emergence herbicidal action against LOLRI; format: in vivo, Lolium rigidum; conditions: 1280 g/ha, post-emergence at one-leaf stage, rated visually after about 3 weeks vs untreated controls
Experimental: as §3

| Structure (SMILES) | Post-emergence action against ECHCG in % (ECHCG [1]) [%] | herbicidal efficacy against harmful plants in the case of pre-emergence treatment (harmful plants) | Pre-emergence action against VERPE in % (VERPE [2]) [%] | Post-emergence action against MATIN in % (MATIN; 320 g/ha) [%] | Post-emergence action against MATIN in % (MATIN; 1280 g/ha) [%] | Post-emergence action against SETVI in % (SETVI [3]) [%] | Post-emergence action against POLCO in % (POLCO [4]) [%] | Post-emergence action against STEME in % (STEME [5]; 1280 g/ha) [%] | Pre-emergence action against SETVI in % (SETVI [6]) [%] | Pre-emergence action against STEME in % (STEME [7]; 320 g/ha) [%] | Pre-emergence action against STEME in % (STEME [7]; 1280 g/ha) [%] | Pre-emergence action against HORMU in % (HORMU [8]) [%] | Pre-emergence action at 320 g/ha against AMARE in % (AMARE [9]) [%] | Pre-emergence action against AMARE in % (AMARE [9]) [%] | Post-emergence action against AMARE in % (AMARE [10]; 320 g/ha) [%] | Post-emergence action against AMARE in % (AMARE [10]; 1280 g/ha) [%] | Pre-emergence action against POLCO in % (POLCO [11]) [%] | Pre-emergence action at 1280 g/ha against ECHCG in % (ECHCG [12]) [%] | Post-emergence action against VIOTR in % (VIOTR) [%] | Post-emergence action against HORMU in % (HORMU [13]) [%] | other results |
| --- | --- | --- | --- | --- | --- | --- | --- | --- | --- | --- | --- | --- | --- | --- | --- | --- | --- | --- | --- | --- | --- |
| COC(=O)[C@@H](C)Oc1nn(-c2cccc(F)c2)c(-c2cccc(F)c2)c1C#N [I-125] | 90 | good herbicidal efficacy | 90 | 80 | 90 | 90 | 80 | 90 | 100 | 90 | 100 | 90 | 100 | 100 | 90 | 90 | 100 | 100 | 90 | 90 | Post-emergence action against PHBPU in % (PHBPU): 80%; Post-emergence action against VERPE in % (VERPE [14]): 80% |
| CC(Oc1nn(-c2ccccc2)c(-c2ccc(F)cc2)c1Cl)C(=O)O (stereo not drawn) [I-139] |  | good herbicidal efficacy | 100 | 80 | 90 |  | 90 | 90 | 100 | 100 | 100 | 90 | 100 | 100 | 90 |  | 90 | 100 | 80 | 80 | Post-emergence action against STEME in % (STEME [5]; 320 g/ha): 80% |
| COC(=O)C(C)Oc1nn(-c2ccccc2F)c(-c2ccc(F)c(F)c2)c1C#N (stereo not drawn) [I-171] | 100 |  |  |  | 90 | 100 |  | 100 | 100 |  | 100 |  |  | 100 |  | 90 |  | 90 |  |  | Post-emergence action against LOLRI in % (LOLRI): 100% |
| C=CCNC(=O)COc1nn(-c2c(F)cccc2F)c(-c2ccc(F)c(F)c2)c1[N+](=O)[O-] [III-069] |  | good herbicidal efficacy | 100 | 80 |  |  | 80 |  | 100 | 100 | 90 | 90 | 100 | 90 | 90 |  | 90 | 100 |  | 80 | Post-emergence action against STEME in % (STEME [5]; 320 g/ha): 90%; Post-emergence action against VERPE in % (VERPE [14]): 90% |
